Test results reported in article PMC12184417, “CDADC1 is a vertebrate-specific dCTP deaminase that metabolizes gemcitabine and decitabine to prevent cellular toxicity” (Proceedings of the National Academy of Sciences of the …, 2025).

Tests used:
DCTD = target: T1, DCTD (Homo sapiens, UniProt P32321); test: thin-layer chromatography of dCMP deamination; format: biochemical; conditions: allosteric activator; substrate dCMP; 37 C, 15 min; 50 mM Tris-HCl pH 7.5
T1 sequence (P32321 1-178): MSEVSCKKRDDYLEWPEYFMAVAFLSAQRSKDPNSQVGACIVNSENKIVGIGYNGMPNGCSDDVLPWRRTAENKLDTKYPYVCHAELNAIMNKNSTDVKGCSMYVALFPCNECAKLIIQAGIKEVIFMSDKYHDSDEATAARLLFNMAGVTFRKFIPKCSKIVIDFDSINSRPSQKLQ

purified protein = substrate: Nc1ccn([C@H]2C[C@H](O)[C@@H](COP(=O)(O)OP(=O)(O)OP(=O)(O)O)O2)c(=O)n1; test: purified protein; format: biochemical, Homo sapiens; conditions: 50 mM Tris-HCl pH 7.5, 200 ng enzyme, sigmoidal fit slightly better than Michaelis-Menten

For `Nc1ccn([C@H]2C[C@H](O)[C@@H](COP(=O)(O)OP(=O)(O)OP(=O)(O)O)O2)c(=O)n1` [dCTP], which “thin-layer chromatography of dCMP deamination” value (DCTD) is on record?
Its value is “DCTD converted dCMP to dUMP, with activity enhanced by the allosteric activator dCTP”.

B1: CDADC1 (Homo sapiens) (protein)
chain: MKEAGQMQNLESARAGRSVSTQTGSMTGQIPRLSKVNLFTLLSLWMELFPAEAQRQKSQKNEEGKHGPLGDNEERTRVSTDKRQVKRTGLVVVKNMKIVGLHCSSEDLHAGQIALIKHGSRLKNCDLYFSRKPCSACLKMIVNAGVNRISYWPADPEISLLTEASSSEDAKLDAKAVERLKSNSRAHVCVLLQPLVCYMVQFVEETSYKCDFIQKITKTLPDANTDFYYECKQERIKEYEMLFLVSNEEMHKQILMTIGLENLCENPYFSNLRQNMKDLILLLATVASSVPNFKHFGFYRSNPEQINEIHNQSLPQEIARHCMVQARLLAYRTEDHKTGVGAVIWAEGKSRSCDGTGAMYFVGCGYNAFPVGSEYADFPHMDDKQKDREIRKFRYIIHAEQNALTFRCQEIKPEERSMIFVTKCPCDECVPLIKGAGIKQIYAGDVDVGKKKADISYMRFGELEGVSKFTWQLNPSGAYGLEQNEPERRENGVLRPVPQKEEQHQDKKLRLGIH
notes: two deaminase domains CDD1 and CDD2
How did the Km (purified protein) turn out when B1 was run?
The Km was 288.5 ± 30.6 µM.
